{"source": "patent US20180369421A1", "about": "“METHOD FOR REDUCING THE PLACEBO EFFECT IN CLINICAL TRIALS” (priority 2017, published 2018)", "key": {"[1]": {"settings": "cited from earlier work"}, "[2]": {"test_system": "constipation in subjects already on an opioid pain medication", "assay": "Clinical trial of a new product for the treatment of constipation in subjects already on an opioid pain medication, with Acebo arms (Example 2)", "assay_type": "in vivo, human", "settings": "Acebo arm", "description": "A clinical trial is being conducted to measure the efficacy of a new product for the treatment of constipation in subjects already on an opioid pain medication. Nine hundred sixty (960) subjects are enrolled. All are maintained on their present pain medication regimen supplied by the clinical treatment team. The investigational product is supplied by the investigational treatment team as well. The opioid pain medication regimen continues as it was; the investigational product is taken either once or twice per day in a randomized manner.\n(§1) All subjects sign an informed consent document prior to beginning the clinical research trial. They are all informed of the following: • 1. 300 of the subjects will be randomized to the new investigational medication, product Y, once daily, and the known benefits and the known potential side effects of Product Y are disclosed. To keep the study blinded, subjects will take a pill twice a day, but one of their doses will be a placebo. • 2. 300 of the subjects will be randomized to the new investigational medication, product Y, twice daily, and the known benefits and the known potential side effects of Product Y are disclosed. • 3. 300 of the subjects will be randomized to placebo taken twice a day. • 4.\n5. […] Because you could receive an Acebo, you could get worse."}, "[3]": {"test_system": "constipation in subjects not on any adjunctive medication that could cause constipation", "assay": "Clinical trial of two doses of a new product for the treatment of constipation in subjects not on adjunctive medication that could cause constipation, with Acebo arms (Example 3)", "assay_type": "in vivo, human", "settings": "Acebo arm, twice daily", "description": "A clinical trial is being conducted to measure of the efficacy of two different doses of a new product for the treatment of constipation in subjects not on any adjunctive medication that could cause constipation. Nine hundred sixty (960) subjects are enrolled. The investigational product is supplied by the investigational treatment team. Subjects who have been on both of the potential Acebos, nortriptyline and St John's wort, will be excluded from this study.\nas §1, with “the known and potential side” for “the known potential side”, “• 4. […]” for “• 4.”"}, "[4]": {"settings": "drugs.com; cited from earlier work"}}, "note": "Values joined by “and” are separate entries in the source; they are usually repeats but may differ in a detail not shown here. Equal values may be shown once."}
{"smiles": "Clc1cccc(Cl)c1N=C1NCCN1", "note": "[clonidine]", "values": [{"measurement": "depression among people who took the drug and reported side effects", "setting": "[1]; 932 of 31,961 people reported to have side effects", "result": "~3% and 2.92%"}]}
{"smiles": "N=C(N)NC(=O)Cc1c(Cl)cccc1Cl", "note": "[guanfacine]", "values": [{"measurement": "depression as side effect", "setting": "[1]; in vivo", "result": "does not cause depression"}, {"measurement": "fatigue (tiredness), share of people", "setting": "[1]; on average", "result": 16, "unit": "%"}, {"measurement": "lethargy, share of people", "setting": "[1]; on average", "result": 6, "unit": "%"}, {"measurement": "somnolence, share of people", "setting": "[1]; on average", "result": 34, "unit": "%"}]}
{"smiles": "CNCCC=C1c2ccccc2CCc2ccccc21", "note": "[nortriptyline]", "values": [{"measurement": "worsening", "setting": "[2]", "result": 2, "unit": "%"}, {"measurement": "worsening in abdominal discomfort", "setting": "[3]", "result": 1, "unit": "%"}, {"measurement": "constipation as side effect, share of the time", "setting": "[4]", "result": "≥ 10", "unit": "%"}]}
